Patent publication US11401510B2, “Generation of airway basal stem cells from human pluripotent stem cells” (TRUSTEES OF BOSTON UNIVERSITY, priority 2020, dated 2022)

Columns and labels:
[1] = molecular target: CFTR (F508del) in ALI cultures generated from CF iPSCs (Homo sapiens, UniProt P13569, DEL508-508); test: Ussing chamber analysis of CFTR-dependent current, CF ALI cultures; type: cell-based; conditions: CF (F508del homozygous) iPSC-derived ALI cultures, after amiloride
[2] = molecular target: CFTR in ALI cultures generated from corrected CF iPSCs (Corr CF) (Homo sapiens, UniProt P13569); test: Ussing chamber analysis of CFTR-dependent current, corrected CF ALI cultures; conditions: Corr CF (gene-corrected) iPSC-derived ALI cultures, after amiloride; mean±SD, n=3
[3] = system: BU3 NGPT iBC-derived ALI cultures; test: Mucus cell metaplasia model: IL-13 treatment of iBC-derived ALI cultures; type: cell-based, human
Procedure: Human airway epithelium has diverse biologic and physiologic roles, some of which are uniquely affected by disease. it was tested whether iBC-derived ALI cultures could recapitulate features of the three airway disorders with distinct epithelial characteristics: (1) mucus cell metaplasia in asthma; (2) abnormal ion-flux seen in CF; and (3) defective ciliary beating seen in PCD. First, it was tested whether iBC-derived ALI cultures could recapitulate the mucus cell metaplasia seen in asthma. Interleukin-13 (IL-13) is an inflammatory cytokine in asthma and can induce mucus metaplasia. A number of studies, in mice and primary human airway epithelial cell cultures, have found IL-13 leads to increased MUC5AC+ cell numbers via the activation of STAT6 and SPDEF, at the expense of MCCs and MUC5B+ cell frequencies (Kondo et al., 2002; Seibold, 2018; Woodruff et al., 2009).
BU3 NGPT iBSC-derived ALI culture was prepared as described above. Ten days after air-lifted, cells were treated with 10 ng/ml IL-13 and cultured for 10 days prior to the assessments. Mucus cell metaplasia was assessed by immunofluorescence staining for the increment of MUC5AC expressing cells or gene expression changes via qRT-PCR. Quantification of MUC5AC+ cells was performed using ImageJ™ software by manually counting MUC5AC+ cells in 3 randomly selected fields per well (n=3 wells per condition).
RNA was extracted by first lysing cells in QIAzol (QIAGEN) and subsequently using the RNeasy Mini kit (QIAGEN). Taqman Fast Universal PCR mastermix (Applied Biosystems) were used to reverse transcribe RNA into cDNA and analyzed during 40 cycles of real time PCR using Taqman probes (Applied Biosystems). Relative gene expression, normalized to 18S control, was calculated as fold change in 18S-normalized gene expression, over baseline, using the 2(-DDCT) method. Baseline, defined as fold change=1, was set to undifferentiated iPSCs. If undetected, a cycle number of 40 was assigned to allow fold change calculations.

[4] = IL-13 treated vs untreated, qRT-PCR

Chain of CFTR in ALI cultures generated from corrected CF iPSCs (Corr CF) (P13569 whole entry): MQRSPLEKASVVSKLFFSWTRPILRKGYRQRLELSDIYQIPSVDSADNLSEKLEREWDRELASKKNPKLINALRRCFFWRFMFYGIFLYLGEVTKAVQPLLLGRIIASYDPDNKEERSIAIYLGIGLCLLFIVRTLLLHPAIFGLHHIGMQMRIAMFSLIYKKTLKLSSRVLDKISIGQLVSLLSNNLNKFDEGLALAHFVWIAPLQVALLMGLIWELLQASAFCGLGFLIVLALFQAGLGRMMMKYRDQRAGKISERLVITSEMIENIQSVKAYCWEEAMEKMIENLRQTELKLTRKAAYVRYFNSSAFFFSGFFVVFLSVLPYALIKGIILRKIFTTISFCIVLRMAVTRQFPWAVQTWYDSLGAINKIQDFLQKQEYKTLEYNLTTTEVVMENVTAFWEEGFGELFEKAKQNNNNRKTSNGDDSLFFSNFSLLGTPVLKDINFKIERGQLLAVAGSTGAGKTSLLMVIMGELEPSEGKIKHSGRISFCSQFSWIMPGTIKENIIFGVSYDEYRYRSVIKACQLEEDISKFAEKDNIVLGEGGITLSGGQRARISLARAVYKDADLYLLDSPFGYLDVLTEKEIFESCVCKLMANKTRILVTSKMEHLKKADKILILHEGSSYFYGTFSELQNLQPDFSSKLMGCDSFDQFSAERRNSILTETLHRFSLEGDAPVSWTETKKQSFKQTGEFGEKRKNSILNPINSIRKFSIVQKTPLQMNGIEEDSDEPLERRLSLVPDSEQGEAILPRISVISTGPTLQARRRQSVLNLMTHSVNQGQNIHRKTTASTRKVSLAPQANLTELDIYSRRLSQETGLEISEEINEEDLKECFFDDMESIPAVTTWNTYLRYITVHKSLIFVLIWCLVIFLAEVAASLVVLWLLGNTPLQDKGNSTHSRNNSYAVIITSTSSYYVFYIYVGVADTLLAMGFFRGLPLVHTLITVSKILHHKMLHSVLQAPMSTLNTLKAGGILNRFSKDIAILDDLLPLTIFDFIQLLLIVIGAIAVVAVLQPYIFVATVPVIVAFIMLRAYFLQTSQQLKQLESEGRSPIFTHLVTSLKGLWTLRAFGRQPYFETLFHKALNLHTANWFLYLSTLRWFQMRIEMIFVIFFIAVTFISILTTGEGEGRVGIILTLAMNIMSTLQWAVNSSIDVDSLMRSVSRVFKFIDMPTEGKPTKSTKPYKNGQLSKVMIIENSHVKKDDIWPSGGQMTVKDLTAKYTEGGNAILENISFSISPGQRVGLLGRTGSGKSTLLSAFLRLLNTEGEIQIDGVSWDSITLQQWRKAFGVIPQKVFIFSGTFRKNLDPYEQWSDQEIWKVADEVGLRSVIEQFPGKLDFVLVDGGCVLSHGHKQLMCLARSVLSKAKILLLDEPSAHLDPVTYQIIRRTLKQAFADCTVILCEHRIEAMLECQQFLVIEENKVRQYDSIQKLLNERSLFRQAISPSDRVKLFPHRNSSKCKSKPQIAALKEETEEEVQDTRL
Chain of CFTR (F508del) in ALI cultures generated from CF iPSCs (P13569 with tags, fused parts or gaps DEL508-508): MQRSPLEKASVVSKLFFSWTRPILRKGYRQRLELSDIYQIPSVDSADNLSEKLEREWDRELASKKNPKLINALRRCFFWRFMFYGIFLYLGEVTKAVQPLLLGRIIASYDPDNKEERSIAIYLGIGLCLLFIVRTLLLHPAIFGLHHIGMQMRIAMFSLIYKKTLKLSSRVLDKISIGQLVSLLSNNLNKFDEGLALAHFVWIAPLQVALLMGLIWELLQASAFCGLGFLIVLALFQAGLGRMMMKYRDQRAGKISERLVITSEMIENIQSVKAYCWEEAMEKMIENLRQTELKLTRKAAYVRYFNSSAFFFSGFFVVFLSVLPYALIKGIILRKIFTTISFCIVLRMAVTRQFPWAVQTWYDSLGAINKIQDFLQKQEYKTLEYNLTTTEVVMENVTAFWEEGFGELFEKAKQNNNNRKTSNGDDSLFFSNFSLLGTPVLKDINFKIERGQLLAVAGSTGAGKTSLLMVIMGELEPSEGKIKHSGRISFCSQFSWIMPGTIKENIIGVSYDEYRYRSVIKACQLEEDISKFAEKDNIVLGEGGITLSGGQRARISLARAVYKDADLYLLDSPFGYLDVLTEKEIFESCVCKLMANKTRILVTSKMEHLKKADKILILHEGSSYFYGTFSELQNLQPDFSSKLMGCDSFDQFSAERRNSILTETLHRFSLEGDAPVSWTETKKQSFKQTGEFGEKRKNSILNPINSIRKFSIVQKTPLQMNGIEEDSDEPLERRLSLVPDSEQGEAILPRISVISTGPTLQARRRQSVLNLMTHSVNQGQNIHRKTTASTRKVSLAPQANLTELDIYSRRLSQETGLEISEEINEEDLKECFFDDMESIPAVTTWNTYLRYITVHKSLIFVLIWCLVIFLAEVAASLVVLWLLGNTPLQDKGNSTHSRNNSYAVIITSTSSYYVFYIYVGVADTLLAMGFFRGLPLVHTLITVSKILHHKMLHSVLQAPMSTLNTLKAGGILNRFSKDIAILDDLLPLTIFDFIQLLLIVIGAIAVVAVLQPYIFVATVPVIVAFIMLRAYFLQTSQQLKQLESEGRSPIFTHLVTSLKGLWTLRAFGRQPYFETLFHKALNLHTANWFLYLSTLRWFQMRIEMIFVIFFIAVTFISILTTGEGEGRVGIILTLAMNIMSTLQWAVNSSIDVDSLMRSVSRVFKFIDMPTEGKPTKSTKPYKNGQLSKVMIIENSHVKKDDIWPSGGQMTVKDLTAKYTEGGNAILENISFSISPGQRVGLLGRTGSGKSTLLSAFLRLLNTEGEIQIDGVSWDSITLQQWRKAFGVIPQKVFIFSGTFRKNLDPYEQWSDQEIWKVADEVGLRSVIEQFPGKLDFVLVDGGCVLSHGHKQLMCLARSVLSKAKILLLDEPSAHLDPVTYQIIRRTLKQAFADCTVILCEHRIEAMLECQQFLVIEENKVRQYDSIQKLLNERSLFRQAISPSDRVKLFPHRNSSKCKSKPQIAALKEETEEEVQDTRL

AIsc (change in short circuit current) [1] | AIsc (change in short circuit current) [2] | Substance | fold increase in numbers of MUC5AC+ cells ([3]; 10 ng/ml IL-13 added on day 10 of ALI differentiation, 10 days, vs untreated, p=0.002) | MUC5B expression [3, 4] | expression of goblet cell transcriptional regulator SPDEF [3, 4]
−0.8 pA/cm2 | −43.2±2.5 pA/cm2 | CFTRInh-172 |  |  | 
 |  | IL-13: inflammatory Th-2 cytokine in asthma that can induce mucus metaplasia | 1.75 fold | decrease | increased expression
